Measured values reported in paper PMC11451967 (2024).

Columns and labels:
Assay in all cases: fluorescence turn-on, 625 nm
[1] = system: ssRNAmix (RNA, single strand) AUGUACCUAGUCUGACCUAG; settings: BPC1 1 μM, oligonucleotide 4 μM; no fluorescence increase
[2] = system: NC (RNA, single strand) UUGUACUACACAAAAGUACUG; settings: BPC1 1 μM, oligonucleotide 4 μM; no fluorescence increase
[3] = system: dsDNAmix (DNA, duplex) CGATAAGCGCTTATCGAGTCGACTCGATAAGCGCTTATCG; settings: BPC1 1 μM, oligonucleotide 4 μM; significant fluorescence enhancement
[4] = system: ssDNAmix (DNA, single strand) ATGCTCAGACTGTCAGAGTC; settings: BPC1 1 μM, oligonucleotide 4 μM; weak fluorescence enhancement

binding [1]: no | binding [2]: no | binding [3]: yes | binding [4]: weak
Structure (SMILES): CC[n+]1c(/C=C/C=C2C=CN(c3ccccc3)C=C2)sc2ccccc21
